Source: patent publication US20210322327A1, “EXTRACELLULAR VESICLES COMPRISING STING-AGONIST” (Codiak BioSciences, Inc., priority 2018, published 2021)

Columns and labels:
B16F10 melanoma cells = experiment: B16F10 subcutaneous primary tumor growth in lung metastasis challenge study; assay type: in vivo, C57BL/6 mice; details: by day 17
Excerpt: Activation of the STING pathway promotes antigen presentation and induces a durable T-cell response, as shown in Examples 11 and 12. Thus, the immune memory response induced by EXOSTING™ may be sufficient to prevent tumor metastasis after a local administration in a primary tumor. To test this hypothesis, exosomes purified from HEK293SF cells overexpressing PTGFRN were loaded with the cyclic dinucleotide 3-3 cAIMPdFSH as described in Example 1. C57BL/6 mice were inoculated subcutaneously with 1×10^6 B16F10 melanoma cells on day zero and challenged with an additional tail vein injection of 1×10^5 B16F10 melanoma cells to seed lung metastases (n=8 mice per group). Five, eight, and eleven days post-inoculation the mice were injected intratumorally at the subcutaneous tumor with PBS, 20 μg 3-3 cAIMPdFSH, 120 ng 3-3 cAIMPdFSH, or either 120 ng, 12 ng, or 1.2 ng 3-3 cAIMPdFSH loaded in PTGFRN-overexpressing exosomes (Exo STING Agonist). […] Lungs from all mice were harvested, imaged, and counted for metastases. […] As little as 12 ng of Exo STING Agonist prevented lung metastasis to the same extent as 20 μg STING Agonist (FIGS. 46B and 47).

STING pathway = experiment: Cytokine levels after single intratumoral dose in C57BL/6 and STING knock-out tumor-bearing mice; assay type: in vivo, C57BL/6 mice and C57BL/6-Tmem173^gt mice; details: C57BL/6 mice; 20 μg intratumoral, four hours
Description: Three groups of C57BL/6 mice and C57BL/6-Tmem173^gt mice (4-5 mice per group) were inoculated subcutaneously with 1×10^6 B16F10 tumor cells. Eight days post-inoculation the mice were injected with a single intratumoral dose of PBS, 20 μg of free 3-3 cAIMPdFSH, or 0.1 μg of 3-3 cAIMPdFSH loaded in PTGFN-overexpressing exosomes (exeSTING). Four hours post-injection the tumors, draining lymph nodes, spleens, and serum were collected and cytokine levels were measured. […] In addition to gene expression, serum cytokine profiles are showing same trend (FIG. 58).

[1] = Plasma pharmacokinetics after intravenous injection; assay type: in vivo, C57BL/6 mice; details: 20 μg free
Description: To examine the pharmacokinetics of STING agonist in mouse plasma, naïve C57BL/6 mice were injected intravenously with 20 μg of free 3-3 cAIMPdFSH, or 0.1 μg, 0.3 μg, 0.6 μg 3-3 cAIMPdFSH loaded in PTGFRN-overexpressing exosomes. One, five, ten, and thirty minutes injection, blood was taken, and plasma were prepared. The concentration of 3-3 cAIMPdFSH was measured by LC-MS/MS, as described in Example 1.

[2] = test system: peritoneal cells and splenocytes; experiment: Immune cell activation (CD86) in peritoneum and spleen 24 hours after intraperitoneal dose; assay type: in vivo, C57BL/6 mice; details: 20 μg single IP dose
Description: A second experiment similar to the previous study was carried out with single-dose IP administration, and extended to 24 hours. Peritoneal cells and splenocytes were isolated from treated mice, and cell activation was measured by detection of CD86.

[3] = test system: B16F10 murine melanoma cells; experiment: B16F10 melanoma tumor growth, intratumoral injection; assay type: in vivo, C57BL/6 mice; details: for tumor growth compared to PBS: day 25
Description: To test this hypothesis, C57BL/6 mice were inoculated subcutaneously with 5×10^5 B16F10 murine melanoma cells (n=5 mice per group). Five, eight, and eleven days post-inoculation the mice were injected intratumorally with PBS, 20 μg ML RR-S2, 0.2 μg ML RR-S2, or 0.2 μg ML RR-S2 loaded in PTGFRN-overexpressing exosomes Tumor volumes were measured daily until day 39, and animals were sacrificed when tumor volume reached 2000 mm^3.

[4] = test system: ovalbumin (OVA)-reactive T-cells; experiment: OVA-reactive memory T-cells by tetramer flow cytometry; assay type: in vivo, C57BL/6 mice; details: six days
Description: STING pathway agonism in dendritic cells enhances antigen presentation, IFNβ production, and recruits CD8+ memory T-cells to elicit a durable adaptive immune response. To determine whether Exo STING could induce a memory T-cell response to a defined antigen, an antigen-specific T-cell response study was carried out using purified ovalbumin (OVA). C57BL/6 mice were injected intraperitoneally with 200 μg OVA mixed with either PBS, 20 μg ML RR-S2, 0.2 μg ML RR-S2, or 0.2 μg ML RR-S2 loaded in PTGFRN-overexpressing exosomes (n=4-10 mice per group). Six days post-injection, spleens and mesenteric lymph nodes were collected, homogenized to a single-cell suspension, and live lymphocytes were enriched by density centrifugation. Isolated lymphocytes were analyzed by flow cytometry by measuring binding to immobilized tetrameric MHC class I bound to the OVA peptide SIINFEKL and phycoerythrin (PE) (iTAg Tetramer/PE—H-2 OVA; MBL®, Code #T03000). OVA-reactive memory T-cells were quantified by gating on PE, CD44, and CD8 positivity.

OVA-reactive splenocytes = experiment: IFNγ ELISpot of splenocytes with OVA peptide SIINFEKL; assay type: in vivo, C57BL/6 mice
Description: As an orthogonal method to measure antigen-specific immunity, IFNγ-expression was measured by ELISpot according to standard protocols (ImmunoSpot®; Cellular Technology Limited). Splenocytes were homogenized to a single-cell suspension and plated (200,000 cells/well) in a plate coated with an anti-IFNγ antibody. The OVA peptide SIINFEKL was added to the cells for 18 hours to induce IFNγ production, cells were washed from the plate, and plate-bound IFNγ was detected using an orthogonal antibody (FIG. 41D). The total number of reactive spots per plate were counted and compared across groups using ImmunoSpot® software (Cellular Technology Limited).

[5] = test system: B16F10 murine melanoma cells; experiment: B16F10 primary tumor and re-challenge, durable T cell responses; assay type: in vivo, C57BL/6 mice
Description: Six, nine, and twelve days post-inoculation, the tumors were injected intratumorally with PBS, exosomes, 100 μg of free ML RR-S2 CDA, or 0.2 μg 3-3 cAIMPdFSH loaded in PTGFRN-overexpressing exosomes. […] Five additional naïve mice were inoculated with the same tumor cell preparation and treated daily with PBS to ensure cell viability and growth kinetics. By day 37 (17 days post-challenge) all mice in the PBS group were sacrificed.

[6] = 20 μg intratumoral days 5, 8, 11

| Compound | primary tumor growth (B16F10 melanoma cells; 120 ng free) | primary tumor growth (B16F10 melanoma cells; [6]) | IFNβ gene expression in tumors, draining lymph node, spleen (STING pathway) | half-life in plasma [1] | peritoneal cell activation (CD86) [2] | spleen immune cell activation (CD86) [2] | tumor growth compared to PBS ([3]; 0.2 μg intratumoral days 5, 8, 11) | complete response (undetectable tumors at the site of inoculation) ([3]; 20 μg intratumoral) | tumor growth compared to PBS [3, 6] | OVA-reactive T-cells in spleen and mesenteric lymph nodes ([4]; 0.2 μg IP with 200 μg OVA) | OVA-reactive T-cells in spleen and mesenteric lymph nodes ([4]; 20 μg IP with 200 μg OVA) | OVA-reactivity (IFNγ spots) (OVA-reactive splenocytes; 0.2 μg IP) | OVA-reactivity (IFNγ spots) (OVA-reactive splenocytes; 20 μg IP) | animals in which re-challenge tumor growth was not inhibited ([5]; 100 μg free group, re-challenged day 20, read day 37) | animals that showed complete response (primary tumor) ([5]; 100 μg free, intratumoral days 6, 9, 12) |
| --- | --- | --- | --- | --- | --- | --- | --- | --- | --- | --- | --- | --- | --- | --- | --- |
| Nc1ncnc2c1ncn2[C@@H]1O[C@@H]2COP(=O)(S)O[C@H]3[C@@H](F)[C@H](n4cnc5c(=O)[nH]cnc54)O[C@@H]3COP(O)(=S)O[C@H]2[C@H]1F (stereo partly drawn) [3-3 cAIMPdFSH, 3′3′-cAIMPdFSH] | no tumor regression observed | did not grow | comparable in the 20 μg free STING agonist and 0.1 μg exosome-STING agonist groups | 1.2 min | – | – | – | – | – | – | – | – | – | – | – |
| Nc1ncnc2c1ncn2[C@@H]1O[C@@H]2COP(O)(=S)O[C@@H]3C(O)[C@@H](COP(O)(=S)O[C@H]2[C@H]1O)O[C@H]3n1cnc2c(N)ncnc21 (stereo partly drawn) [ML RR-S2 CDA] | – | – | – | – | activation of peritoneal B cells, macrophages, monocytes and conventional dendritic cells (cDCs) | moderate levels of immune cell activation | moderately potentiated | three out of five | almost completely eliminated | no activity in the spleen and only a modest response in mesenteric lymph nodes | A greater proportion of OVA-reactive T-cells | very low levels of OVA-reactivity | highly reactive | 10 out of 10 | ten |
